Results from ChEMBL document CHEMBL3885861, “Open TG-GATES”.

Species on record: Rattus norvegicus
Experiment: Open TG-GATES - Regimen: Single
Type: toxicity, organism-based, Sprague-Dawley
Parameters: regimen Single, gender Male, age 6 weeks
Conditions: in vivo, iv, 0 mg/kg, route intravenous injection, dose level Control; for Bas / Eos / Fbg / Ht / Lym / MCH / MCHC / MCV / Mono / PT / Plat / RBC / Ret / Neu: tissue Blood; for KIDNEY_L / KIDNEY_R / KIDNEY_TOTAL: tissue Kidney; for LIVER: tissue Liver

## COc1cccc2c1C(=O)c1c(O)c3c(c(O)c1C2=O)C[C@@](O)(C(=O)CO)C[C@@H]3O[C@H]1C[C@H](N)[C@H](O)[C@H](C)O1 [DOXORUBICIN]
3 h
  TERMINAL_BW: 210.4 g
  Bas: 0%
  Eos: 0.8%
  Fbg: 277.8 mg/dL
  Ht: 39.4%
  Lym: 84.4%
  MCH: 22 pg
  MCHC: 34.9%
  MCV: 63.1 fL
  Mono: 2.6%
  PT: 16.3 s
  Plat: 122.6 x10_4/uL
  RBC: 625 x10_4/ul
  Ret: 6.3%
  KIDNEY_L: 0.9 g
  KIDNEY_R: 0.9 g
  KIDNEY_TOTAL: 1.8 g
  LIVER: 9.4 g
3 h, tissue Plasma
  ALP: 1425.2 IU/L
  ALT: 43.6 IU/L
  AST: 77 IU/L
  CRE: 0.2 mg/dL
  DBIL: 0 mg/dL
  GLC: 181.8 mg/dL
  K: 4.5 meq/L
  LDH: 185.6 IU/L
  Na: 142.2 meq/L
  RALB: 3 g/dL
  TBIL: 0.008 mg/dL
  TC: 77.6 mg/dL
  TG: 87.2 mg/dL
  TP: 5.2 g/dL
  gamma-GTP: 1.2 IU/L
6 h
  TERMINAL_BW: 211.5 g
  Bas: 0%
  Eos: 0.8%
  Fbg: 292.4 mg/dL
  Ht: 38.3%
  Lym: 76%
  MCH: 21.5 pg
  MCHC: 34.4%
  MCV: 62.4 fL
  Mono: 2.8%
  Neu: 19.2%
  PT: 16.3 s
  Plat: 127.3 x10_4/uL
  RBC: 614.6 x10_4/ul
  Ret: 6.9%
  KIDNEY_L: 0.9 g
  KIDNEY_R: 0.9 g
  KIDNEY_TOTAL: 1.8 g
  LIVER: 8.9 g
6 h, tissue Plasma
  ALP: 1252 IU/L
  ALT: 46.6 IU/L
  AST: 90.2 IU/L
  CRE: 0.2 mg/dL
  DBIL: 0.004 mg/dL
  GLC: 172.2 mg/dL
  K: 4.3 meq/L
  Na: 140.6 meq/L
  RALB: 2.9 g/dL
  TBIL: 0.026 mg/dL
  TC: 71.8 mg/dL
  TG: 63 mg/dL
  TP: 5.1 g/dL
  gamma-GTP: 1.6 IU/L
9 h
  TERMINAL_BW: 208 g
  Bas: 0%
  Eos: 0.6%
  Fbg: 298.2 mg/dL
  Ht: 38.9%
  Lym: 77.8%
  MCH: 21.6 pg
  MCHC: 34.2%
  MCV: 63.2 fL
  Mono: 2.8%
  PT: 16.4 s
  Plat: 116.3 x10_4/uL
  RBC: 615.4 x10_4/ul
  Ret: 6.5%
  KIDNEY_L: 0.9 g
  KIDNEY_R: 1 g
  KIDNEY_TOTAL: 1.9 g
  LIVER: 8.6 g
9 h, tissue Plasma
  ALP: 1422.6 IU/L
  ALT: 39.8 IU/L
  AST: 77.6 IU/L
  CRE: 0.2 mg/dL
  DBIL: 0 mg/dL
  GLC: 201.8 mg/dL
  K: 4.3 meq/L
  Na: 140.2 meq/L
  RALB: 2.9 g/dL
  TBIL: 0.01 mg/dL
  TC: 63 mg/dL
  TG: 65.6 mg/dL
  TP: 5.3 g/dL
  gamma-GTP: 1.4 IU/L
24 h
  TERMINAL_BW: 223.8 g
  Bas: 0%
  Eos: 1%
  Fbg: 298 mg/dL
  Ht: 37.5%
  Lym: 77.6%
  MCH: 22.4 pg
  MCHC: 36%
  MCV: 62.2 fL
  Mono: 4%
  Neu: 16.4%
  PT: 16.4 s
  Plat: 117.3 x10_4/uL
  RBC: 602.6 x10_4/ul
  Ret: 7%
  KIDNEY_L: 0.9 g
  KIDNEY_R: 1 g
  KIDNEY_TOTAL: 1.9 g
24 h, tissue Plasma
  ALP: 1402 IU/L
  ALT: 41 IU/L
  AST: 68 IU/L
  CRE: 0.2 mg/dL
  DBIL: 0.002 mg/dL
  GLC: 191.2 mg/dL
  K: 4.5 meq/L
  Na: 141.6 meq/L
  RALB: 3.1 g/dL
  TBIL: 0.014 mg/dL
  TC: 77.6 mg/dL
  TG: 113 mg/dL
  TP: 5.5 g/dL
  gamma-GTP: 1.4 IU/L
